In one assay the test system is antibodies to HIV-2. Put plainly: Specificity ELISA (Example 12, Figure 3), HIV-2 antibody positive sera. The conditions noted are these: 20 sera containing antibodies to HIV-2 but not to HIV-1 TMP gp41 (West Africans); positive O.D. above 0.150. The assay is classed as binding, human. (In general: An ELISA detects its analyte on a solid surface through an enzyme-linked reagent.)

For the next assay, the system named is antibodies against HIV-1. The experiment in a line: Specificity ELISA (Example 12, Figure 3), HIV-1 antibody positive sera. The conditions noted are these: 20 sera with antibodies against HIV-1; positive O.D. above 0.150. The assay is classed as binding, human. The text has this:
In the Figures forming a portion of the disclosure of this invention: • Figure 1 illustrates a portion of the STLV-IIImac TMP amino acid residue sequence. The sequence is shown from left to right and in the direction of amino-terminus to carboxy-terminus in a single-letter code. The residue positions have been numbered as illustrated from 1-33. • Figure 2 illustrates, in a manner similar to Figure 1, a portion of the amino acid residue sequence of the HIV-1 TMP and represent gp41 amino acid residues […] as described in Ratner et al., Nature, 313:277-283 (1985). However, for ease of discussion, those residue positions have been renumbered as illustrated from 1-32. • Figure 3 contains 2 panels illustrating antibody determinations using a diagnostic system of this invention to assay (a) 20 sera from individuals in Guinea-Bissau previously determined to have antibodies against HIV-related viruses (West Africans), (b) 20 sera from HIV-1-infected individuals and (c) 20 sera from blood donors without antibodies to HIV-1 or HIV-2. Sera were considered positive (closed symbols) when they produced optical density (O.D.) values above 0.150 (the mean O.D. of negative samples plus 6 standard deviations). Negative sera are represented by open symbols. […]

For the sequence AIEKYLEDQAQLNAWCAFRQVC [p80], the immunoreaction with sera entry in the assay on antibodies to HIV-2 is given as “pronounced reactions”; with antibodies against HIV-1, “with one exception, produced no substantial immunoreaction”.

The record behind these values is patent EP0309566B1, “STLV-III-RELATED POLYPEPTIDES, DIAGNOSTIC SYSTEMS AND ASSAY METHODS” (JOHNSON AND JOHNSON, priority 1987, dated 1994).
